18 molecules from article PMC8199613, “Discovery of Novel Small-Molecule Inhibitors of PD-1/PD-L1 Interaction via Structural Simplification Strategy” (Molecules, 2021) can be followed below.

SMILES strings stand for the structures. In brackets after ≈: the same amount, converted by molar mass. Some results are limits rather than exact numbers.

Data set [1] in a line: Water solubility by HPLC. The data set is classed as physicochemical. Particulars: aqueous buffer, thermodynamic from solid, pH 7.4, PBS. Here is the method: The aqueous solubility was estimated by HPLC. The HPLC analysis was performed on a Shimadzu LC-20AT machine with a BDS Hypersil C18 column, and the column temperature was at 28 °C. Mobile phase B (100% MeOH) and mobile phase A (100% water) were used in a gradient elution program (0 min: 30% (B), 2 min: 50% (B), 8 min: 95% (B), 14 min: 95% (B), 18 min: 70% (B), 20 min: 30% (B)) with a flow rate of 1.0 mL/min at […]. Methanol was used to configure an accurate compounds concentration to calculate the standard curve. The excess test compound was dissolved in PBS (KH2PO4 0.24 g + KCl 0.2 g + NaCl 8 g + Na2HPO4·12H2O 3.58 g + 1 L water) and then analyzed by HPLC.

The target in data set [2] is T1, PD-1/PD-L1 interaction (Homo sapiens, UniProt Q9NZQ7).
T1 construct: purchased Cisbio 64ICP01PEG
As to the kind of experiment: HTRF-based PD-1/PD-L1 binding assay. Particulars: for inhibition at 0.1 µM: 0.1 μM compound, read-out: Inhibitory Rate (%) 0.1 μM; for inhibition at 0.1 µM / inhibition at 1 µM / IC50: HTRF; for inhibition at 1 µM: 1 μM compound, read-out: Inhibitory Rate (%) 1 μM; for IC50: two independent experiments; for LE: LE = −1.35 logIC50/Nheavy atoms (HTRF IC50). In general terms: Time-resolved FRET reads energy transfer from a long-lived donor to a nearby acceptor.

Data set [3] concerns MDA-MB-231 cells. As to the kind of experiment: MTT non-specific cytotoxicity assay, MDA-MB-231. The note with it: for EC50: Homo sapiens, MDA-MB-231, 48 h, read-out: EC50 (μM)/MDA-MB-231 Toxicity; for direct killing of tumor cells: as shown in Table 3. The data set is classed as cell-based. Here is the method:
(§1) Considering that the toxicity of the compound might strongly interfere with the assay if the tested compounds could block PD-1/PD-L1 interaction to activate T cells for killing tumors, we examined their cell toxicities of MDA-MB-231 and Jurkat T cells in MTT assay. […] Furthermore, Jurkat T cells were used to simulate primary T cells for investigating the immune toxicity of the treated compounds with the regular concentrations within 48 h.
(§2) The MDA-MB-231 and Jurkat cell line was provided by the Chinese Academy of Sciences Cell Bank. The cytotoxicity of the test compounds was determined using the MTT assay. Briefly, MDA-MB-231 and Jurkat cells were incubated at 37 °C in a humidified 5% CO2 incubator for 24 h in 96-microwell plates. Then, 100 μL of culture medium containing the test compounds at different concentrations was added to each well and incubated at 37 °C for another 48 h. The MTT was added and incubated for another 4 h, and the optical density was detected with a microplate reader at 570 nm. The IC50 values were calculated according to the dose-dependent curves.

Data set [4] deals with Jurkat T cells. As to the kind of experiment: MTT non-specific cytotoxicity assay, Jurkat. The data set is classed as cell-based. The note with it: for EC50: Homo sapiens, Jurkat, MTT, 48 h, read-out: EC50 (μM)/Jurkat Toxicity; for immune toxicity in Jurkat T cells: regular concentrations within 48 h. Here is the method:
as §1, §2

The target in data set [5] is hPD-L1 (Homo sapiens, UniProt Q9NZQ7). As to the kind of experiment: SPR binding affinity assay (Biacore T200). Here is the method:
To provide definitive evidence of direct binding to PD-L1 with small-molecule inhibitors, an SPR-based binding assay was performed using Biacore T200 instrument, which facilitates measurement of the kinetic parameters of ligand–protein complex formation. In this determination, hPD-L1/Fc was loaded on a Series S Sensor Chip Protein A. A9 and A15, with similar bioactivities in HTRF assay, were gradually subjected to this assay, and their kinetic parameters and the binding affinities were determined with the aid of Biacore evaluation software.
SPR analysis was carried out according to the method described by a previous article. The kinetic analysis for the interaction of small molecules with hPD-L1 was performed on a Biacore T200 (GE Healthcare Bio-sciences, Uppsala, Sweden) using Series S Sensor Chip Protein A (GE Healthcare Bio-sciences, Uppsala, Sweden, catalog # 29139131-AA). Briefly, Fc-hPD-L1 (Acro Biosystems, Cambridge, MA, USA, catalog #PD1-H5258) was diluted using 1 × PBS-P^+ buffer (phosphate buffer 1×, GE Healthcare Bio-sciences, catalog # 28-9950-84, enriched with 0.05% surfactant P20) containing 5% DMSO (Sigma-Aldrich, St. Louis, MO, America, catalog # D4540) and captured as the ligand (i.e., the target of small molecules) on protein A chip surface following Biacore T200 build-in protocol for kinetic/affinity analysis at a concentration of 10 μg/mL. The contact time and flow rates were set as 120 s and 10 μL/min for the ligand capture. Each experiment was performed using a pair of flow cells, one with ligand captured and the other kept as reference. A concentration gradient of analytes was freshly prepared in 1× PBS-P^+ buffer with 5% DMSO with at least five concentrations, and the concentration range was optimized according to different analytes. Analytes could flow through both ligand-captured flow cells and reference flow cells at the same rate (30 μL/min) and contact time (90 s). Solvent correction was included to avoid the impact of DMSO on surface plasmon effect during binding analysis. Extra washing of the flow system using 50% DMSO in 1×PBS-P^+ buffer was allowed to control carry over effects. For the regeneration of surface after each cycle (one-time ligand capture and binding of analyte at a single concentration) was carried out using 10 mM glycine pH 1.5 (GE Healthcare Bio-sciences, Uppsala, Sweden, catalog #BR-1003-54) at a flow rate of 30 μL/min for 30 s. Kinetic analysis was performed at 25 °C. Maximum binding response (Rmax) and equilibrium dissociation […] (KD) values were calculated using Biacore T200 Evaluation software following the 1:1 binding model.
A general note: Surface plasmon resonance follows binding to a sensor surface in real time, without labels.

hPD-L1, sequence (Q9NZQ7 19-238 limits assumed): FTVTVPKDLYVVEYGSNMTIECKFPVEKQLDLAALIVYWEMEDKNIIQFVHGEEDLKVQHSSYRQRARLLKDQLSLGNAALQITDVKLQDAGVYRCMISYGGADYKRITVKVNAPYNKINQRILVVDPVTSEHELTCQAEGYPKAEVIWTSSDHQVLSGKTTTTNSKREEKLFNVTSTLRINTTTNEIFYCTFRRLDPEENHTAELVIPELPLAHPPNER
T1 sequence (Q9NZQ7 19-238 limits assumed): as above

In the case of `COc1nc(OCc2cccc(-c3ccccc3)c2C)ccc1CNCCNC(C)=O` [BMS-202, reference compound], in data set [1], the concentration in solution (solubility) came to 90 µg/mL (≈ 215 µM).

As to `Cc1ccccc1-c1cccc(OCCCN2CCC(O)CC2)c1C.Cl` [Compound A1, 1-(3-((2,2′-Dimethyl-[1,1′-biphenyl]-3-yl)oxy)propyl)piperidin-4-ol hydrochloride], in data set [2], the inhibition at 0.1 µM came out at 56%; the inhibition at 1 µM was determined as 90%; the IC50 (in general, the concentration that inhibits the measured activity by half) was determined as 114 nM; the LE came out at 0.38.

For `Cc1c(CN2CCC(N3CCC(O)CC3)CC2)cccc1-c1ccccc1F` [Compound A2, 1′-((2′-Fluoro-2-methyl-[1,1′-biphenyl]-3-yl)methyl)-[1,4′-bipiperidin]-4-ol], the melting point (in general, the temperature, or range, at which the solid turns liquid) fell in the range of 110 to 113 °C. Further, in data set [2], the inhibition at 0.1 µM is 8.5% and the inhibition at 1 µM stood at 6.7%.

Regarding `COc1cc(-c2cccc(-c3ccccc3F)c2C)ccc1CN1CCC(O)CC1` [Compound A3, 1-((2″-Fluoro-3-methoxy-2′-methyl-[1,1′:3′,1″-terphenyl]-4-yl)methyl)piperidin-4-ol], the melting point lay in the range of 61.5 to 63.5 °C. Moreover, in data set [2], the inhibition at 0.1 µM is 74.5%, the inhibition at 1 µM worked out at 96.2%, the 50% inhibitory concentration (IC50) worked out at 18.4 nM and the LE turned out to be 0.35.

The molecule `COc1nc(-c2cccc(-c3ccccc3F)c2C)ccc1CN1CCC(O)CC1` [Compound A4, 1-((6-(2′-Fluoro-2-methyl-[1,1′-biphenyl]-3-yl)-2-methoxypyridin-3-yl)methyl)piperidin-4-ol] registered a melting point of 84 to 86 °C. In data set [2], the inhibition at 0.1 µM amounted to 71%, the inhibition at 1 µM stood at 98%, the half-inhibitory concentration (IC50) turned out to be 21.9 nM and the LE came to 0.36.

In turn, `COc1nc(-c2cccc(-c3ccccc3F)c2C)ccc1CNC1CCC(O)CC1` (stereo not drawn) [Compound A5, 4-(((6-(2′-Fluoro-2-methyl-[1,1′-biphenyl]-3-yl)-2-methoxypyridin-3-yl)methyl)amino)cyclohexan-1-ol] came in with a melting point of 80 to 82 °C. Also, in data set [2], the IC50 came out at 14.3 nM and the LE was 0.35.

`COc1nc(-c2cccc(-c3ccccc3F)c2C)ccc1CN1CCCC(C(N)=O)C1` (stereo not drawn) [Compound A6, 1-((6-(2′-Fluoro-2-methyl-[1,1′-biphenyl]-3-yl)-2-methoxypyridin-3-yl)methyl)piperidine-3-carboxamide] registered a melting point of 88 to 91 °C. In data set [2], this molecule gave an IC50 of 121 nM and an LE of 0.30.

As to `COc1nc(-c2cccc(-c3ccccc3F)c2C)ccc1CN1CCC(C(N)=O)CC1` [Compound A7, 1-((6-(2′-Fluoro-2-methyl-[1,1′-biphenyl]-3-yl)-2-methoxypyridin-3-yl)methyl)piperidine-4-carboxamide], the melting point lay within 194 to 196 °C. Further, in data set [2], the 50% inhibitory concentration (IC50) was 10.7 nM and the LE amounted to 0.34.

The molecule `COc1nc(-c2cccc(-c3ccccc3F)c2C)ccc1CN1CCC(C(=O)O)CC1` [Compound A8, 1-((6-(2′-Fluoro-2-methyl-[1,1′-biphenyl]-3-yl)-2-methoxypyridin-3-yl)methyl)piperidine-4-carboxylic acid] displayed a melting point of 218 to 220 °C. In data set [2], this molecule showed a 50% inhibitory concentration (IC50) of 20.6 nM and an LE of 0.33.

Take `COc1nc(-c2cccc(-c3ccccc3C)c2C)ccc1CNCCC(N)=O` [Compound A10]: the melting point fell in the range of 70 to 73 °C. Moreover, the “decrease in activity as compared with A9” value in data set [2] (HTRF IC50 ratio) was “more than 10 fold”. Moreover, in data set [2], the 50% inhibitory concentration (IC50) is 10.5 nM and the LE is recorded as 0.38.

Regarding `COc1nc(-c2cccc(-c3ccccc3Cl)c2C)ccc1CNCCC(N)=O` [Compound A11], the melting point was in the range of 49 to 51 °C. Further, in data set [3], the EC50 was found to be 7.1 µM and the “direct killing of tumor cells” value is listed as “do not directly kill tumor cells”. Also, in data set [4], the EC50 was found to be 5.5 µM and the “immune toxicity in Jurkat T cells” value was “lower cell toxicity”. Moreover, in data set [2], the concentration for half-maximal inhibition (IC50) worked out at 6.18 nM and the LE was found to be 0.39.

Take `COc1nc(-c2cccc(-c3ccccc3C(F)(F)F)c2C)ccc1CNCCC(N)=O` [Compound A12]: the melting point lay within 50.5 to 53.5 °C. For the same molecule, the “decrease in activity as compared with A9” value in data set [2] (HTRF IC50 ratio) is “more than 10 fold”. Moreover, in data set [2], the IC50 was 51.5 nM and the LE is 0.31.

`COc1nc(-c2cccc(-c3ccccc3)c2C)ccc1CNCCC(N)=O` [Compound A13] registered a melting point of 127 to 128 °C. In data set [3], the EC50 was over 10 µM and the “direct killing of tumor cells” value was “do not directly kill tumor cells”. The EC50 in data set [4] turned out to be 7.73 µM. The “increase in potency over compound A11” value in data set [2] (HTRF IC50 ratio) is “approximately 3 fold”. Further, in data set [2], the IC50 turned out to be 1.94 nM and the LE is listed as 0.43.

For the molecule `COc1nc(-c2cccc(-c3cccc(F)c3)c2C)ccc1CNCCC(N)=O` [Compound A14, 3-(((6-(3′-Fluoro-2-methyl-[1,1′-biphenyl]-3-yl)-2-methoxypyridin-3-yl)methyl)amino)propenamide], the melting point fell in the range of 48 to 51 °C. In data set [3], the EC50 is over 10 µM and the “direct killing of tumor cells” value is reported as “do not directly kill tumor cells”. Moreover, in data set [4], the EC50 is over 10 µM. For the same molecule, in data set [2], the concentration for half-maximal inhibition (IC50) came to 1.75 nM and the LE is recorded as 0.41.

The molecule `COc1nc(-c2cccc(-c3ccc(F)cc3)c2C)ccc1CNCCC(N)=O` [Compound A15] had a melting point of 120 to 122 °C. In addition, in data set [3], the EC50 is 10.2 µM and the “direct killing of tumor cells” value was “do not directly kill tumor cells”. Further, in data set [4], the EC50 came out at 5.5 µM and the “immune toxicity in Jurkat T cells” value is “lower cell toxicity”. Moreover, the LE in data set [5] (LE = -1.35log KD/Nheavy atoms (SPR KD)) amounted to 0.36. Moreover, the kon in data set [5] (SPR association rate, read-out: Ka (M-1s-1) / Kon) turned out to be 505000 M⁻¹ s⁻¹. Further, the koff in data set [5] (SPR dissociation rate, read-out: Kd (s-1) / Koff) is 0.0101 s⁻¹. Besides, the Kd (usually the free concentration of one partner at which half of the binding sites on the other are occupied at equilibrium, for simple one-to-one binding) in data set [5] (SPR, 25 °C, 1:1 binding model) stood at 19.9 nM. In addition, in data set [2], the half-inhibitory concentration (IC50) stood at 0.97 nM and the LE came to 0.43.

Take `COc1nc(-c2cccc(-c3ccc(F)cc3F)c2C)ccc1CNCCC(N)=O` [Compound A16]: the melting point lay within 113 to 115 °C. In addition, in data set [2], the concentration for half-maximal inhibition (IC50) is 60 nM and the LE is 0.33.

Turning to `COc1nc(-c2cccc(-c3ccc(Cl)cc3F)c2C)ccc1CNCCC(N)=O` [Compound A17], the melting point lay in the range of 122 to 124 °C. In data set [2], this molecule displayed an IC50 of 866 nM and an LE of 0.28.

Take `COc1nc(-c2cccc(-c3ccc(C(F)(F)F)cc3F)c2C)ccc1CNCCC(N)=O` [Compound A18]: the melting point fell in the range of 137 to 139 °C. In data set [2], the IC50 came to 791 nM and the LE was 0.25.
